Data published in patent publication JP2011135835A, “ダンマラン系トリテルペン類含有組成物及び呈味改善方法” (Lion Corp, priority 2009, dated 2011).

Experiment: physchem
Assay type: physicochemical
Conditions: for residual rate: after standing 3 weeks at 40°C, 75% relative humidity, HPLC

Row | SMILES | remaining at 504 h [%] | residual rate
1 | CC1(C)CCC[C@](C)([C@H]2CC[C@]3(C)[C@@H]2[C@H](O)C[C@@H]2[C@@]4(C)CC[C@H](O)C(C)(C)[C@@H]4CC[C@]23C)O1 [PD, パナキサジオール] | 99.7 | 
2 | CC(C)=CCC[C@](C)(O)[C@H]1CC[C@]2(C)[C@@H]1[C@H](O)C[C@@H]1[C@@]3(C)CC[C@H](O)C(C)(C)[C@@H]3CC[C@]12C [PPD, プロトパナキサジオール] |  | 検出されなかった
3 | CC(C)=CCC[C@](C)(O)[C@H]1CC[C@]2(C)[C@@H]1[C@H](O)C[C@@H]1[C@@]3(C)CC[C@H](O)C(C)(C)[C@@H]3[C@@H](O)C[C@]12C [PPT, プロトパナキサトリオール] |  | 検出されなかった
4 | CC1(C)CCC[C@](C)([C@H]2CC[C@]3(C)[C@@H]2[C@H](O)C[C@@H]2[C@@]4(C)CC[C@H](O)C(C)(C)[C@@H]4[C@@H](O)C[C@]23C)O1 [PT, パナキサトリオール] | 99.8 | 
